In US8822494B2 (Pfizer Inc., priority 2012, dated 2014):
Structures can show the parent of a compound that is named as a salt.

Experiments:
Human D1 [1] = target: T1, Human D1 (Homo sapiens (Human), UniProt P21728); test: Human D1 Receptor Binding Assay ([3H]-SCH23390 competition); details: read-out: Human D1 Receptor Binding, Ki (μM); Geometric mean of 2-3 determinations; over-expressing LTK human cell lines, 0.5 nM [3H]-SCH23390, 30 min at 37° C.; footnote b = single determination, c = geometric mean of ≧4 determinations
Protocol: D1 binding assays were performed using over-expressing LTK human cell lines. […] These ligand and tissue concentrations were used in time course studies to determine linearity and equilibrium conditions for binding. […] The pellet was resuspended in assay buffer [50 mM Tris (pH 7.4@ RT) containing 4 mM MgSO4 and 0.5 mM EDTA]. […] Non-specific binding was determined by radioligand binding in the presence of a saturating concentration of (+)-Butaclamol (10 μM), a D1 antagonist. After a 30 minute incubation period at 37° C., assay samples were rapidly filtered through Unifilter-96 GF/B PEI-coated filter plates and rinsed with 50 mM Tris buffer (pH 7.4 at 4° C.). […] Ki values were calculated according to the Cheng-Prusoff equation: […]

Human D1 [2] = target: T1, Human D1; test: D1 cAMP HTRF Assay; format: cell-based; details: HEK293T/hD1#1 stable cell line, 30 min at room temperature; footnote a = geometric mean of ≧7 determinations
Source text: This assay was used to determine the ability of a test compound to agonize (including partially agonize) D1. A Mab anti-cAMP labeled Cryptate visualizes the tracer. […] The signal, therefore, is inversely proportional to the concentration of cAMP in the sample.
The cAMP Dynamic kit was obtained from Cisbio International (Cisbio 62AM4PEJ). Multidrop Combi (Thermo Scientific) was used for assay additions. An EnVision (PerkinElmer) reader was used to read HTRF.
A HEK293T/hD1#1 stable cell line was constructed internally (Pfizer Ann Arbor).
Media was removed and cell pellet was re-suspended in PBS/[…] generating 2e5 cells/mL. […] Working solutions of cAMP-D2 and anti-cAMP-cryptate were prepared according to Cisbio instructions. […] The assay plate was incubated for 1 hour at room temperature. The assay plate was read on an EnVision plate reader using Cisbio recommended settings.
Data analysis was done using computer software. Percent effects were calculated from the compound controls. Ratio EC50 was determined using the raw ratio data from the EnVision reader. The cAMP standard curve was used in an analysis program to determine cAMP concentrations from raw ratio data. cAMP EC50 was determined using the calculated cAMP data.

T1 sequence (P21728 whole entry): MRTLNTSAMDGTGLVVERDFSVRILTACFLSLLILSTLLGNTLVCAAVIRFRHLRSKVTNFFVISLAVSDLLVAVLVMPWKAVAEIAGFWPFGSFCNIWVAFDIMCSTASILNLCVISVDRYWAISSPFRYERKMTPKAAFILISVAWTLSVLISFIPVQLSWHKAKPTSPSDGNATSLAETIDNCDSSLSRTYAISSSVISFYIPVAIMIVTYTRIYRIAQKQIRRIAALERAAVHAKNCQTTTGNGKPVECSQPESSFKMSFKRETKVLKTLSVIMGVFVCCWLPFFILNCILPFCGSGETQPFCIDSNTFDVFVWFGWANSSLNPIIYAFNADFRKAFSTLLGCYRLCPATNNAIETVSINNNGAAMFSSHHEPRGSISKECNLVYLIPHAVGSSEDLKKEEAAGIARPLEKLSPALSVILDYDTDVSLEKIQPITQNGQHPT

Row | SMILES | Ki (Human D1 [1]) | EC50 (Human D1 [2])
1 | Cc1cc(Oc2nccc3[nH]ncc23)ccc1-n1c(C)nc2cnccc21 [Example 30, 4-[3-methyl-4-(2-methyl-1H-imidazo[4,5-c]pyridin-1-yl)phenoxy]-1H-pyrazolo[4,3-c]pyridine] | 0.268 µM | 2760 nM
2 | Cc1cc(Oc2nccc3[nH]ncc23)ccc1-c1cc(=O)[nH]nc1C [Example 31, 6-methyl-5-[2-methyl-4-(1H-pyrazolo[4,3-c]pyridin-4-yloxy)phenyl]pyridazin-3(2H)-one] | 0.287 µM | 548 nM
3 | COc1cc(Oc2nccc3[nH]ncc23)ccc1-c1c(C)ncnc1C [Example 33, 4-[4-(4,6-dimethylpyrimidin-5-yl)-3-methoxyphenoxy]-1H-pyrazolo[4,3-c]pyridine] | 0.124 µM | 2080 nM
4 | Cc1ncnc(C)c1-c1ccc(Oc2nccc3[nH]ncc23)cc1C#N [Example 34, 2-(4,6-dimethylpyrimidin-5-yl)-5-(1H-pyrazolo[4,3-c]pyridin-4-yloxy)benzonitrile] | 0.391 µM | 2380 nM
5 | Cc1cc(Oc2nccc3[nH]ncc23)c(F)cc1-c1c(C)ncnc1C [Example 36, 4-[4-(4,6-dimethylpyrimidin-5-yl)-2-fluoro-5-methylphenoxy]-1H-pyrazolo[4,3-c]pyridine] | 0.118 µM | 733 nM
6 | Cc1ncnc(C)c1-c1ccc(Oc2nccc3[nH]ncc23)cc1 [Example 38, 4-[4-(4,6-dimethylpyrimidin-5-yl)phenoxy]-1H-pyrazolo[4,3-c]pyridine] | 0.129 µM | 2520 nM
7 | Cc1cc(Oc2nccc3[nH]ncc23)ccc1-c1cn[nH]c(=O)c1C [Example 42, 4-methyl-5-[2-methyl-4-(1H-pyrazolo[4,3-c]pyridin-4-yloxy)phenyl]pyridazin-3(2H)-one, trifluoroacetate salt] | 0.123 µM | 340 nM
8 | COc1cnc(Oc2ccc(-c3c(C)n[nH]c(=O)c3C)cc2)c2cn[nH]c12 [Example 47, 5-{4-[(7-methoxy-1H-pyrazolo[4,3-c]pyridin-4-yl)oxy]phenyl}-4,6-dimethylpyridazin-3(2H)-one] | 0.695 µM | 1300 nM

The next compounds have a lower Ki (Human D1 [1]) than those just listed; values first:

Row | Ki (Human D1 [1]) | EC50 (Human D1 [2]) | SMILES
9 | 0.0723 µM | 903 nM | Cc1ncnc(C)c1-c1ccc(Oc2nccc3[nH]ncc23)cc1F [Example 32, 4-[4-(4,6-dimethylpyrimidin-5-yl)-3-fluorophenoxy]-1H-pyrazolo[4,3-c]pyridine]
10 | 0.0696 µM | 1340 nM | Cc1ncnc(C#N)c1-c1ccc(Oc2nccc3[nH]ncc23)cc1F [Example 35, 5-[2-fluoro-4-(1H-pyrazolo[4,3-c]pyridin-4-yloxy)phenyl]-6-methylpyrimidine-4-carbonitrile]
11 | 0.0679 µM | 119 nM | Cc1cc(Oc2nccc3[nH]ccc23)ccc1-c1cc(=O)[nH]nc1C [Example 29, 6-methyl-5-[2-methyl-4-(1H-pyrrolo[3,2-c]pyridin-4-yloxy)phenyl]pyridazin-3(2H)-one]
12 | 0.0523 µM | 248 nM | Cc1ncnc(C)c1-c1ccc(Oc2nccc3[nH]ncc23)cc1Cl [Example 37, 4-[3-chloro-4-(4,6-dimethylpyrimidin-5-yl)phenoxy]-1H-pyrazolo[4,3-c]pyridine]
13 | 0.0409 µM | 127 nM | Cc1n[nH]c(=O)c(C)c1-c1ccc(Oc2nccc3[nH]ncc23)cc1 [Example 41, 4,6-dimethyl-5-[4-(1H-pyrazolo[4,3-c]pyridin-4-yloxy)phenyl]pyridazin-3(2H)-one]
14 | 0.0247 µM | 89.1 nM | Cc1cc2[nH]ncc2c(Oc2ccc(-c3c(C)n[nH]c(=O)c3C)cc2)n1 [Example 46, 4,6-dimethyl-5-{4-[(6-methyl-1H-pyrazolo[4,3-c]pyridin-4-yl)oxy]phenyl}pyridazin-3(2H)-one]
15 | 0.0175 µM | 28.2 nM | Cc1c(-c2ccc(Oc3nccc4[nH]ncc34)cc2)n(C)c(=O)[nH]c1=O [Example 43, 1,5-dimethyl-6-[4-(1H-pyrazolo[4,3-c]pyridin-4-yloxy)phenyl]pyrimidine-2,4(1H,3H)-dione]
16 | 0.0103 µM | 66.3 nM | Cc1n[nH]c(=O)c(C)c1-c1ccc(Oc2nccc3[nH]nc(C)c23)cc1 [Example 45, 4,6-dimethyl-5-{4-[(3-methyl-1H-pyrazolo[4,3-c]pyridin-4-yl)oxy]phenyl}pyridazin-3(2H)-one]
17 | 0.0046 µM | 55.3 nM | Cc1cc(Oc2nccc3[nH]cc(C#N)c23)ccc1-c1c(C)ncnc1C [Example 44, 4-[4-(4,6-dimethylpyrimidin-5-yl)-3-methylphenoxy]-1H-pyrrolo[3,2-c]pyridine-3-carbonitrile]
